Data reported in US8299089B2, “Multi-arm polymeric conjugates of 7-ethyl-10-hydroxycamptothecin for treatment of breast, colorectal, pancreatic, ovarian and lung cancers” (priority 2006, dated 2012).

Key:
Colo 205 = assay: In vitro cytotoxicity, MTS assay, Colo 205; type: cell-based; details: Table 2; Colo 205, 72 hours; Compound 9 in 7-ethyl-10-hydroxycamptothecin equivalents; average ± SD (n = 3)
Protocol: (§1) In Table 2, the cytotoxicity (μM of each compound that results in an IC50) provides an indication of the in vitro anti-tumor potency of each compound. This study was used to determine the effect of PEGylation of four-arm PEGylated 7-ethyl-10-hydroxycamptothecin conjugates. […] Cells were incubated with drugs for 72 hours at 37° C. Following incubation, MTS dye was added and formation of a colored product (formazan) was measured at 490 nm.

HT29 = assay: In vitro cytotoxicity, MTS assay, HT29; type: cell-based; details: Table 2; HT29, 72 hours; Compound 9 in 7-ethyl-10-hydroxycamptothecin equivalents; average ± SD (n = 3)
Protocol: as §1

A549 = assay: In vitro cytotoxicity, MTS assay, A549; type: cell-based; details: Table 2; A549, 72 hours; Compound 9 in 7-ethyl-10-hydroxycamptothecin equivalents; average ± SD (n = 3)
Protocol: as §1

PANC-1 = assay: In vitro cytotoxicity, MTS assay, PANC-1; type: cell-based; details: Table 2; PANC-1, 72 hours; Compound 9 in 7-ethyl-10-hydroxycamptothecin equivalents; average ± SD (n = 3)
Protocol: as §1

MIA PaCa-2 = assay: In vitro cytotoxicity, MTS assay, MIA PaCa-2; type: cell-based; details: Table 2; MIA PaCa-2, 72 hours; Compound 9 in 7-ethyl-10-hydroxycamptothecin equivalents; no SD = average of two replicates
Protocol: as §1

ASPC-1 = assay: In vitro cytotoxicity, MTS assay, ASPC-1; type: cell-based; details: Table 2; ASPC-1, 72 hours; Compound 9 in 7-ethyl-10-hydroxycamptothecin equivalents; average ± SD (n = 3)
Protocol: as §1

BxPC-3 = assay: In vitro cytotoxicity, MTS assay, BxPC-3; type: cell-based; details: Table 2; BxPC-3, 72 hours; Compound 9 in 7-ethyl-10-hydroxycamptothecin equivalents; average ± SD (n = 3)
Protocol: as §1

OVCAR-3 = assay: In vitro cytotoxicity, MTS assay, OVCAR-3; type: cell-based; details: Table 2; OVCAR-3, 72 hours; Compound 9 in 7-ethyl-10-hydroxycamptothecin equivalents; average ± SD (n = 3)
Protocol: as §1

OV90 = assay: In vitro cytotoxicity, MTS assay, OV90; type: cell-based; details: Table 2; OV90, 72 hours; Compound 9 in 7-ethyl-10-hydroxycamptothecin equivalents; average ± SD (n = 3)
Protocol: as §1

OVCAR-8 = assay: In vitro cytotoxicity, MTS assay, OVCAR-8; type: cell-based; details: Table 2; OVCAR-8, 72 hours; Compound 9 in 7-ethyl-10-hydroxycamptothecin equivalents; average ± SD (n = 3)
Protocol: as §1

A2780 = assay: In vitro cytotoxicity, MTS assay, A2780; type: cell-based; details: Table 2; A2780, 72 hours; Compound 9 in 7-ethyl-10-hydroxycamptothecin equivalents; average ± SD (n = 3)
Protocol: as §1

SK-0V-3 = assay: In vitro cytotoxicity, MTS assay, SK-0V-3; type: cell-based; details: Table 2; SK-0V-3, 72 hours; Compound 9 in 7-ethyl-10-hydroxycamptothecin equivalents; average ± SD (n = 3)
Protocol: as §1

[1] = system: human mammary carcinoma (MX-1); assay: Single dose efficacy in MX-1 breast tumor xenograft mouse model; type: in vivo, nude mice; details: day 31; for TGI: 20 mg/kg
Protocol: Following at least one week of acclimation, tumors were established by implanting small tumor fragments from donor mice into a single subcutaneous site, on the left auxiliary flank region of nude mice. The tumor implantation site was observed twice weekly and measured once palpable. The tumor volume for each mouse was determined by measuring two dimensions with calipers and calculated using the formula: tumor volume=(length×width^2). […] Drugs were administered intravenously via the tail vein as a single dose of 20 mg/kg body weight of a mouse. […] Mouse weight and tumor sizes were measured at the beginning of study and on the 31st day after the single dose administration.
The overall growth of tumors was calculated as the mean tumor volume (TV). A percent treatment over control (T/C) was also calculated. The percentage of tumor regression indicates the in vivo activity of each compound.

[2] = system: human mammary carcinoma (MX-1); assay: Multiple dose efficacy in MX-1 breast tumor xenograft mouse model; type: in vivo, nude mice; details: i.v. 5 mg/kg/dose (q2d×6), day 31
Protocol: The mice were dosed 5 mg/kg/day […] (every 2 days [q×2d]×6). Mouse weight and tumor sizes were monitored up to the 31st day after the first dose administration and subsequent administrations.

[3] = system: human mammary, MX-1 tumors; assay: Efficacy in small and large MX-1 breast tumor xenografted mice; type: in vivo, nude mice
Protocol: The antitumor efficacy of 4armPEG-Gly-(7-ethyl-10-hydroxycamptothecin) was evaluated in nude mice bearing small (about 100 mm^3) or large (about 450 mm^3) established human mammary, MX-1 tumors. The antitumor therapeutic activities were determined in mice both with a single dose or multiple dose regimens.
Four of six mice were cured as of day 54. […] All animals were sacrificed by day 20 due to excessive tumor burden.

[4] = system: MiaPaCa-2 pancreatic tumor cells; assay: Efficacy in MiaPaCa-2 pancreatic tumor xenograft mice; type: in vivo
[5] = Stability in saline, aqueous medium and buffer; type: physicochemical; details: effect of pH, FIG. 13
Protocol: PEG-7-ethyl-10-hydroxycamptothecin conjugates show good stability in saline and other aqueous medium for up to 24 hours at room temperature.

[6] = Pharmacokinetics in tumor free Balb/C mice; type: in vivo
Excerpt: Pharmacokinetic analysis was done using non-compartmental analysis (WinNonlin).

Pharmacokinetics in rats = type: in vivo; details: rats, 3, 10 and 30 mg/kg; conjugate
[7] = system: panel of cancer cell lines; assay: In vitro cytotoxicity, panel of cancer cell lines (comparisons); type: cell-based
Protocol: as §1
PEG-(7-ethyl-10-hydroxycamptothecin) conjugates containing various amino acids are potent in vitro cytotoxicity against a panel of cancer cell lines as summarized in TABLE 3.

[8] = system: HT-29 colorectal tumor cells; assay: Efficacy in HT-29 colorectal tumor xenograft mice

Substance “^40k4arm-PEG-Gly(20)-(7-ethyl-10-hydroxycamptothecin) [Compound 9]” has an IC50 (Colo 205) of 1000 ± 600 nM, an IC50 (HT29) of 500 ± 300 nM and an IC50 (A549) of 2700 ± 400 nM. For the same substance, the IC50 (PANC-1) was 670 ± 140 nM, the IC50 (MIA PaCa-2) was 90 nM and the IC50 (ASPC-1) was 1600 ± 1100 nM. It also gave an IC50 (BxPC-3) of 240 ± 40 nM, an IC50 (OVCAR-3) of 300 ± 200 nM and an IC50 (OV90) of 600 ± 700 nM. It also gave an IC50 (OVCAR-8) of 500 ± 100 nM, an IC50 (A2780) of 200 ± 200 nM and an IC50 (SK-0V-3) of 900 ± 10 nM. For the same substance, the “Mean TV ± SD” value ([1]; single dose i.v. 20 mg/kg (conjugate as 7-ethyl-10-hydroxycamptothecin equivalent)) was 7 ± 9 mm^3, the “Chg in TV ± SD” value ([1]; single dose i.v. 20 mg/kg) was −94 ± 10% and the Cures ([1]; single dose i.v. 20 mg/kg) was 100%. The F/I ([1]; single dose i.v. 20 mg/kg) was 7%, the “Median TV” value ([1]; single dose i.v. 20 mg/kg) was 3 mm^3 and the Regressions ([1]; single dose i.v. 20 mg/kg) was 100%. For the same substance, the Survival ([1]; single dose i.v. 20 mg/kg) was 100%, the T/C ([1]; single dose i.v. 20 mg/kg) was 0.3% and the TGI ([1]; single dose i.v. 20 mg/kg) was 99%. The TGI ([1]; single dose i.v. 20 mg/kg, listed as 4armPEG-Gly-(7-ethyl-10-hydroxycamptothecin)) was about 100%, the “Chg in TV ± SD” value [2] was −91 ± 10% and the Cures [2] was 100%. The F/I [2] was 14%, the “Mean TV ± SD” value [2] was 12 ± 18 mm^3 and the “Median TV” value [2] was 6.6 mm^3. It also gave a Regressions [2] of 100%, a Survival [2] of 100% and a T/C [2] of 0.8%. The TGI [2] was 99%, the “effect on body weight” value ([3]; given at the MTD, for the duration of the treatment) was “did not significantly decrease the body weight” and the TGI ([3]; large tumors (about 450 mm^3), single MTD 30 mg/kg) was 96%. For the same substance, the mice cured ([3]; large tumors, multiple doses 10 mg/kg q2d×5, as of day 54) was “five of six”, the TGI ([3]; large tumors, multiple doses at MTD 10 mg/kg q2d×5) was 96% and the mice cured ([3]; large tumors, single MTD 30 mg/kg, as of day 54) was “Four of six”. It also gave a TGI ([3]; small tumors (about 100 mm^3), multiple doses 20 mg/kg q2d×5, as of day 31) of 96%, a TGI ([3]; small tumors (about 100 mm^3), single dose 20 mg/kg) of 100% and a TGI ([4]; multiple doses i.v. (10 mg/kg/dose for five days; CPT-11 also 40 mg/kg/dose)) of 95%. The TGI ([4]; single dose i.v. (30 mg/kg; CPT-11 also 80 mg/kg)) was 71%, the “rate of 7-ethyl-10-hydroxycamptothecin release” value [5] was “increases with increased pH” and the terminal elimination half-life ([6]; for 7-ethyl-10-hydroxycamptothecin) was 18 to 26 h. The terminal elimination half-life ([6]; for the conjugate) was 18 to 22 h, the elimination half life (Pharmacokinetics in rats) was 12 to 18 h and the “in vitro inhibition compared with CPT-11” value ([7]; all tested tumor cells) was “much higher in vitro inhibition”. The “in vitro inhibition compared with native 7-ethyl-10-hydroxycamptothecin” value ([7]; tested tumor cells except for HT29) was “significantly higher in vitro inhibition”, the “effect on body weight” value ([8]; during the treatment) was “did not significantly decrease the body of weight” and the “therapeutic efficacy” value ([8]; i.v. 10 mg/kg/dose for five days, days 4-22) was “significant therapeutic efficacy compared to that of CPT-11”. For the same substance, the “anti-tumor activity” value ([8]; single dose i.v. 30 mg/kg, days 4-22) was “significant anti-tumor activity”.
